# Test system: bovine cardiac myofibrils
# Experiment: Myofibril assay: PK/LDH-coupled steady-state ATPase activity of skinned bovine cardiac myofibrils
# Format: biochemical
# Conditions: Ca2+ activating to 75% of maximal rate
# Summary of the method: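 Steady-state ATPase of detergent-skinned bovine left-ventricular myofibrils (1 mg/mL), PK/LDH-coupled NADH read at 340 nm, in PIPES/MgCl2 buffer pH 6.8 with 50 μM ATP, 0.6 mM EGTA and CaCl2 set for 50% or 75% activation. Inhibition of activity measured.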
row,Compound,CDMF75 IC15
1,"NC(=O)[C@H]1C[C@]2(C1)C(=O)N(c1ncc(Cl)cc1F)CC(=O)N2Cc1ccc(C(F)F)cc1 (single isomer, unassigned) [Compound 875B, 8-(5-chloro-3-fluoropyridin-2-yl)-5-(4-(difluoromethyl)benzyl)-6,9-dioxo-5,8-diazaspiro[3.5]nonane-2-carboxamide]",3.2 µM
2,"CC(C)N1CC(=O)N(Cc2ccc(C(F)(F)F)cc2)C2(CCN(c3cc[nH]c(=O)c3)C2)C1=O (stereo not drawn) [Compound 76, 9-isopropyl-2-(2-oxo-1,2-dihydropyridin-4-yl)-6-(4-(trifluoromethyl)benzyl)-2,6,9-triazaspiro[4.5]decane-7,10-dione]",2.2 µM
3,"CNC(=O)N1CC2(C1)C(=O)N(c1ccc(C#N)cc1)CC(=O)N2Cc1ccc(C(F)(F)F)cc1 [Compound 146, 8-(4-cyanophenyl)-N-methyl-6,9-dioxo-5-(4-(trifluoromethyl)benzyl)-2,5,8-triazaspiro[3.5]-nonane-2-carboxamide]",1.2 µM
4,"CC1(N2CC(=O)N(Cc3ccc(Cl)cc3)C3(CCN(c4ccccn4)C3)C2=O)CC1 (stereo not drawn) [Compound 85, 6-(4-chlorobenzyl)-9-(1-methylcyclopropyl)-2-(pyridin-2-yl)-2,6,9-triazaspiro[4.5]decane-7,10-dione]",14.3 µM
5,"CC(=O)N1CC2(C1)C(=O)N(C1CCC(C(F)F)CC1)CC(=O)N2Cc1ccc(C(F)(F)F)cc1 (stereo not drawn) [Compound 324, 2-acetyl-8-(4-(difluoro-methyl)cyclohexyl)-5-(4-(trifluoromethyl)benzyl)-2,5,8-triazaspiro[3.5]-nonane-6,9-dione]",11.5 µM
6,"CS(=O)(=O)CCC1C(=O)N(c2ncc(Cl)cc2F)CC(=O)N1Cc1ccc(C(F)(F)F)cc1 (stereo not drawn) [Compound 612, 1-(5-chloro-3-fluoropyridin-2-yl)-3-(2-(methylsulfonyl)-ethyl)-4-(4-(trifluoro-methyl)benzyl)piperazine-2,5-dione]",13.6 µM
7,CC(=O)N1CC2(C1)C(=O)N(c1ccc(-c3noc(C)n3)cc1F)CC(=O)N2Cc1ccc(C(F)(F)F)cc1 [Compound 702],25.5 µM
8,"CC(C)N1CC(=O)N(Cc2cccc(C#N)c2)C(c2ccc(Cl)cc2)C1=O (stereo not drawn) [Compound 306, 3-((2-(4-chlorophenyl)-4-isopropyl-3,6-dioxo-piperazin-1-yl)methyl)-benzonitrile]",27.0 µM
9,"CNC(=O)N1CC2(C1)C(=O)N(c1ccc(Cl)c(F)c1)CC(=O)N2Cc1ccc(C(F)(F)F)cc1 [Compound 155, 8-(4-chloro-3-fluorophenyl)-N-methyl-6,9-dioxo-5-(4-(trifluoromethyl)benzyl)-2,5,8-triazaspiro[3.5]-nonane-2-carboxamide]",0.6 µM
10,"O=C1CN(c2ncc(Cl)cc2F)C(=O)C2(CC3(COC3)C2)N1Cc1ccc(C(F)(F)F)cc1 [Compound 813, 10-(5-chloro-3-fluoro-pyridin-2-yl)-7-(4-(trifluoro-methyl)benzyl)-2-oxa-7,10-diazadispiro-[3.1.56.14]dodecane-8,11-dione]",0.4 µM
11,"CNC(=O)N1CC2(C1)C(=O)N(c1ccc(OC(F)(F)F)cc1)CC(=O)N2Cc1ccc(C(F)(F)F)cc1 [Compound 160, N-methyl-6,9-dioxo-8-(4-(trifluoromethoxy)-phenyl)-5-(4-(trifluoromethyl)benzyl)-2,5,8-triazaspiro[3.5]-nonane-2-carboxamide]",7.1 µM
12,"CC(C)N1CC(=O)N(Cc2ccc(C(F)(F)F)cc2)C2(CN(c3ccccn3)C2)C1=O [Compound 46, 8-isopropyl-2-(pyridin-2-yl)-5-(4-(trifluoromethyl)-benzyl)-2,5,8-triazaspiro-[3.5]nonane-6,9-dione]",0.9 µM
13,"CCOC(=O)C1CC2(C1)C(=O)N(c1ncc(Cl)cc1F)CC(=O)N2Cc1ccc(C(F)(F)F)cc1 (single isomer, unassigned) [Compound 859B, ethyl 8-(5-chloro-3-fluoropyridin-2-yl)-6,9-dioxo-5-(4-(trifluoromethyl)benzyl)-5,8-diazaspiro[3.5]nonane-2-carboxylate]",0.3 µM
14,"CCN1CC(=O)N(Cc2ccc(Cl)cc2)C2(CCN(c3ccccn3)C2)C1=O (stereo not drawn) [Compound 82, 6-(4-chlorobenzyl)-9-ethyl-2-(pyridin-2-yl)-2,6,9-triazaspiro[4.5]decane-7,10-dione]",8.1 µM
15,"CC(C)N1CC(=O)N(Cc2ccc(Cl)cc2)C2(CN(c3ccc(=O)[nH]n3)C2)C1=O [Compound 52, 5-(4-chlorobenzyl)-8-isopropyl-2-(6-oxo-1,6-dihydropyridazin-3-yl)-2,5,8-triazaspiro[3.5]-nonane-6,9-dione]",17.8 µM
16,"CC(C)N1CC(=O)N(Cc2ccc(Cl)cc2)C(c2ccc(Cl)cc2)C1=O (single isomer, unassigned) [Compound 288B, 3-(4-chlorophenyl)-4-[(4-chlorophenyl)methyl]-1-(propan-2-yl)piperazine-2,5-dione]",>39 µM

row,Compound,CDMF75 IC15
1,"O=C1CN(c2ncc(Cl)cc2F)C(=O)C2(CC(F)C2)N1Cc1ccc(C(F)(F)F)cc1 (stereo not drawn) [Compound 574, 8-(5-chloro-3-fluoropyridin-2-yl)-2-fluoro-5-(4-(trifluoromethyl)benzyl)-5,8-diazaspiro[3.5]nonane-6,9-dione]",0.3 µM
2,Cc1cnc(C2CC3(C2)C(=O)N(c2ccc(C#N)cc2F)CC(=O)N3Cc2ccc(C(F)(F)F)cc2)o1 (stereo not drawn) [Compound 436B],0.3 µM
3,"CC(C)N1CC(=O)N(Cc2ccccc2)C(c2ccc(Cl)cc2)C1=O (stereo not drawn) [Compound 294, 4-benzyl-3-(4-chlorophenyl)-1-isopropylpiperazine-2,5-dione]",33.3 µM
4,"O=C1CN(c2ncc(Cl)cc2F)C(=O)C2(COC2)N1Cc1ccc(C(F)F)cc1 [Compound 768, 8-(5-chloro-3-fluoropyridin-2-yl)-5-(4-(difluoromethyl)-benzyl)-2-oxa-5,8-diazaspiro[3.5]nonane-6,9-dione]",4.3 µM
5,"CCNC(=O)N1CCC2(C1)C(=O)N(C(C)C)CC(=O)N2Cc1ccc(C(F)(F)F)cc1 (stereo not drawn) [Compound 116, N-ethyl-9-isopropyl-7,10-dioxo-6-(4-(trifluoromethyl)benzyl)-2,6,9-triazaspiro[4.5] decane-2-carboxamide]",7.2 µM
6,"COc1cnc(N2CC(=O)N(Cc3ccc(C(F)(F)F)cc3)C(C3COC3)C2=O)c(F)c1 (single isomer, unassigned) [Compound 703B, 1-(3-fluoro-5-methoxypyridin-2-yl)-3-(oxetan-3-yl)-4-(4-(trifluoromethyl)benzyl)piperazine-2,5-dione]",37.2 µM
7,"N#Cc1ccc(N2CC3(C2)C(=O)N(c2ccccc2)CC(=O)N3Cc2ccc(C(F)(F)F)cc2)nc1 [Compound 350, 6-(6,9-dioxo-8-phenyl-5-(4-(trifluoromethyl)benzyl)-2,5,8-triazaspiro[3.5]nonan-2-yl)nicotinonitrile]",5.5 µM
8,"CC(C)N1CC(=O)N(Cc2ccc(Cl)cc2)C(C)(c2ccc(Cl)cc2)C1=O (stereo not drawn) [Compound 316, 4-(4-chlorobenzyl)-3-(4-chlorophenyl)-1-isopropyl-3-methylpiperazine-2,5-dione]",14.3 µM
9,"O=C1C(CC2COC2)N(Cc2ccc(Cl)cc2)C(=O)CN1c1ncc(Cl)cc1F (stereo not drawn) [Compound 640, 1-(5-chloro-3-fluoropyridin-2-yl)-4-(4-chlorobenzyl)-3-(oxetan-3-ylmethyl)-piperazine-2,5-dione]",1.6 µM
10,"N#Cc1ccc(N2CC(=O)N(Cc3ccc(Cl)cc3)C3(CCN(C(=O)C4CC4)C3)C2=O)c(F)c1 (stereo in doubt) [Compound 213, (S)-4-(6-(4-chlorobenzyl)-2-(cyclopropanecarbonyl)-7,10-dioxo-2,6,9-triazaspiro[4.5]decan-9-yl)-3-fluorobenzonitrile]",0.4 µM
11,"CNC(=O)N1CC2(C1)C(=O)N(c1ccc(OC(F)F)cc1)CC(=O)N2Cc1ccc(C(F)(F)F)cc1 [Compound 159, 8-(4-(difluoromethoxy)-phenyl)-N-methyl-6,9-dioxo-5-(4-(trifluoro-methyl)benzyl)-2,5,8-triazaspiro[3.5]nonane-2-carboxamide]",3.2 µM
12,"CCN1CC(=O)N(Cc2ccc(C(F)(F)F)cc2)C2(CN(c3ccc(C#N)cn3)C2)C1=O [Compound 57, 6-(8-ethyl-6,9-dioxo-5-(4-(trifluoromethyl)benzyl)-2,5,8-triazaspiro[3.5]-nonan-2-yl)nicotinonitrile]",33.3 µM
13,"O=C1C(C2CC(O)C2)N(Cc2ccc(F)cc2)C(=O)CN1c1ccc(Cl)cc1F (single isomer, unassigned) [Compound 866C, 1-(4-chloro-2-fluorophenyl)-4-(4-fluorobenzyl)-3-(3-hydroxycyclobutyl)piperazine-2,5-dione]",2.3 µM
14,"CNC(=O)N1CC2(C1)C(=O)N(c1ccc(C)cc1)CC(=O)N2Cc1ccc(C(F)(F)F)cc1 [Compound 153, N-methyl-6,9-dioxo-8-(p-tolyl)-5-(4-(trifluoromethyl)benzyl)-2,5,8-triazaspiro[3.5]-nonane-2-carboxamide]",6.4 µM
15,"Cc1cc(Cl)cnc1N1CC(=O)N(Cc2ccc(Cl)cc2)C(CC2COC2)C1=O (stereo not drawn) [Compound 655, 1-(5-chloro-3-methylpyridin-2-yl)-4-(4-chlorobenzyl)-3-(oxetan-3-ylmethyl)-piperazine-2,5-dione]",7.0 µM
16,"CC(C)N1CC(=O)N(Cc2ccc(Cl)cc2)C2(CN(c3cnccn3)C2)C1=O [Compound 12, 5-(4-chlorobenzyl)-8-isopropyl-2-(pyrazin-2-yl)-2,5,8-triazaspiro-[3.5]nonane-6,9-dione]",6.6 µM

# Same assay, conditions: Ca2+ activating to 75% of maximal rate, listed as 838A
row,Compound,CDMF75 IC15
1,"O=C1C(C23CC(O)(C2)C3)N(Cc2ccc(C(F)(F)F)cc2)C(=O)CN1c1ncc(Cl)cc1F (single isomer, unassigned) [Enantiomer 838A, 1-(5-chloro-3-fluoropyridin-2-yl)-3-(3-hydroxybicyclo[1.1.1]pentan-1-yl)-4-(4-(trifluoromethyl)benzyl)piperazine-2,5-dione]",2.3 µM
